Laboratory results published in patent US20250188092A1, “RIFAMYCIN ANALOGS” (THE REGENTS OF THE UNIVERSITY OF MICHIGAN, priority 2021, published 2025).
Values after ≈ are worked out from the molar mass of the structure shown. Read-outs that look alike come from different tables or passages of the source.

Key:
VERO cells (ATCC CRL-81) = test: Vero cell toxicity; format: cell-based; conditions: 72 hours exposure
Experimental: Cytotoxicity for a mammalian cell line was determined by exposing VERO cells (ATCC CRL-81) to serial dilutions of test compounds for 72 hours, followed by addition of resazurin and measurement of fluorescence after 4 hours incubation (Choules, et al., Antimnicrob. Agents Chemother. 2019, 63, e02204-02218).

[1] = target: T1, E. coli D516V (RIF^R) RNAP (Escherichia coli, UniProt P0A8V2, D516V); test: biochemical
T1 construct: made in house

M. tuberculosis H37Rv = test: Minimum bactericidal concentration (MBC, CFU Assay); format: cell-based, Mycobacterium tuberculosis; conditions: for MBC99 Day 7 (CFU Assay) MBC99 Rel to RMP: CFU Assay MBC99 relative to rifampin (RMP = 1); for MBC: Mycobacterium tuberculosis, 168 h, Day 7, M. tuberculosis H37Rv, ≥99% reduction in colony forming units, read-out: MBC99 Day 7 (CFU Assay) MBC99
[2] = target: T2, E. coli S531L (RIF^R) RNAP (Escherichia coli, UniProt P0A8V2, S531L); test: biochemical
T2 construct: made in house

E. coli WT RNAP = target: T3, E. coli WT RNAP (Escherichia coli, UniProt P0A8V2); test: biochemical
T3 construct: made in house

MTB H37Rv ATCC 27294 = test: MIC, microplate Alamar Blue assay (MABA); format: cell-based, Mycobacterium tuberculosis
[3] = target: T4, human pregnane X receptor (hPXR) (Homo sapiens, UniProt O75469)
T4 sequence (O75469 1-434): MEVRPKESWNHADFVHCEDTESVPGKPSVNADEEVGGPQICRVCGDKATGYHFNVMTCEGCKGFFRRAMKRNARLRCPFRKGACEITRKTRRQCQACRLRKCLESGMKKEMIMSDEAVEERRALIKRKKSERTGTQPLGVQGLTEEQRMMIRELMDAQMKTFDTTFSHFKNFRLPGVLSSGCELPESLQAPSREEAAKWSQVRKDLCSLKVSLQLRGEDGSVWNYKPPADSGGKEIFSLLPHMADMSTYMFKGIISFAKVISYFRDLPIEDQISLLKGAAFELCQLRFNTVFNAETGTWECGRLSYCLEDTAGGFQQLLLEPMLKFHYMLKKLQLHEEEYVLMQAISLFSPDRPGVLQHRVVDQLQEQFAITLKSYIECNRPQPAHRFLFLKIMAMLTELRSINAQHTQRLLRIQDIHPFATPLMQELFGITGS

WT MTB RNAP = target: T5, WT MTB RNAP (Mycobacterium tuberculosis, UniProt P9WGY9); format: biochemical; conditions: lower limit of detection ~5 nM
T5 construct: made in house; host or cells: E. coli BL21(DE3)

[4] = MTB H37Rv ATCC 27294, microplate Alamar Blue assay, lowest concentration giving ≥90% reduction in fluorescence

SMILES | IC50 (VERO cells (ATCC CRL-81); Chlorocebus sabaeus, Vero) | IC50 [1] | MBC99 Day 7 (CFU Assay) MBC99 Rel to RMP (M. tuberculosis H37Rv) | MBC (M. tuberculosis H37Rv) | IC50 [2] | IC50 (E. coli WT RNAP) | MIC90 MABA Rel to RMP (MTB H37Rv ATCC 27294) | MIC (MTB H37Rv ATCC 27294; Mycobacterium tuberculosis, MTB H37Rv ATCC 27294, microplate Alamar Blue assay, lowest concentration giving ≥90% reduction in fluorescence, read-out: MIC90 MABA) | DPX2 Viability @ 6.25 μM (DPX2 cells; 6.25 μM, 24 h) | DPX2 Viability @ 25 μM (DPX2 cells; human) | MIC90 (MTB H37Rv ATCC 27294; Mycobacterium tuberculosis, MTB H37Rv ATCC 27294, microplate Alamar Blue assay, lowest concentration giving ≥90% reduction in fluorescence) | IC50 (VERO cells (ATCC CRL-81)) | hPXR Fold Act. (lucif) @ 6.25 μM [3] | hPXR Fold Act. (lucif) @ 25 μM [3] | MIC90 (MTB H37Rv ATCC 27294; [4]) | IC50 (WT MTB RNAP) | DPX2 Viability @ 6.25 μM (DPX2 cells) | DPX2 Viability @ 25 μM (DPX2 cells) | hPXR Fold Act. (lucif) @ 6.25 μM ([3]; 6.25 μM, 24 h) | hPXR Fold Act. (lucif) @ 25 μM ([3]; 25 μM, 24 h)
CO[C@H]1/C=C/O[C@@]2(C)Oc3c(C)c(O)c4c(=O)c(c5oc6cc(N7CCN(CC(C)C)CC7)cc(OCc7ccc(CN8CCN(C(=O)Cn9ccnc9)CC8)cc7)c6nc-5c4c3C2=O)NC(=O)/C(C)=C\C=C\[C@H](C)[C@H](O)[C@@H](C)[C@@H](O)[C@@H](C)[C@H](OC(C)=O)[C@@H]1C [Compound 17c, (7S,9E,11S,12R,13S,14R,15R,16R,17S,18S,19E,21Z)-2,15,17-Trihydroxy-32-{[4-({4-[2-(1H-imidazol-1-yl)acetyl]piperazin-1-yl}methyl)phenyl]methoxy}-11-methoxy-3,7,12,14,16,18,22-heptamethyl-30-[4-(2-methylpropyl)piperazin-1-yl]-6,23,37-trioxo-8,27,38-trioxa-24,34-diazahexacyclo[23.11.1.1^4,7.0^5,36.0^26,35.0^28,33]octatriaconta-1(36)2,4,9,19,21,25,28,30,32,34-undecaen-13-yl acetate] | > 8 µM | 12 µM | 0.15 | 0.02 µM | 100 µM | 0.02 µM | 1.3 | 0.023 µM | 102% | 94% |  |  |  |  |  |  |  |  |  | 
CO[C@H]1/C=C/O[C@@]2(C)Oc3c(C)c(O)c4c(=O)c(c5oc6cc(N7CCN(CC(C)C)CC7)cc(OCc7ccc(CN8CCN(C(=O)CN9CCOCC9)CC8)cc7)c6nc-5c4c3C2=O)NC(=O)/C(C)=C\C=C\[C@H](C)[C@H](O)[C@@H](C)[C@@H](O)[C@@H](C)[C@H](OC(C)=O)[C@@H]1C [Compound 17d, (7S,9E,11S,12R,13S,14R,15R,16R,17S,18S,19E,21Z)-2,15,17-Trihydroxy-11-methoxy-3,7,12,14,16,18,22-heptamethyl-30-[4-(2-methylpropyl)piperazin-1-yl]-32-{[4-({4-[2-(morpholin-4-yl)acetyl]piperazin-1-yl}methyl)phenyl]methoxy}-6,23,37-trioxo-8,27,38-trioxa-24,34-diazahexacyclo[23.11.1.1^4,7.0^5,36.0^26,35.0^28,33]octatriaconta-1(36)2,4,9,19,21,25,28,30,32,34-undecaen-13-yl acetate] | > 8 µM | 7.3 µM | 0.15 | 0.02 µM | 32 µM | 0.016 µM |  |  | 104% | 84% | < 0.016 µM |  |  |  |  |  |  |  |  | 
CO[C@H]1/C=C/O[C@@]2(C)Oc3c(C)c(O)c4c(=O)c(c5oc6cc(N7CCC(CC(=O)O)CC7)cc(OCc7ccc(CN8CCOCC8)cc7)c6nc-5c4c3C2=O)NC(=O)/C(C)=C\C=C\[C@H](C)[C@H](O)[C@@H](C)[C@@H](O)[C@@H](C)[C@H](OC(C)=O)[C@@H]1C [Compound 17l, 2-{1-[(7S,9E,11S,12R,13S,14R,15R,16R,17S,18S,19E,21Z)-13-(acetyloxy)-2,15,17-trihydroxy-11-methoxy-3,7,12,14,16,18,22-heptamethyl-32-{[4-(morpholin-4-ylmethyl)phenyl]methoxy}-6,23,37-trioxo-8,27,38-trioxa-24,34-diazahexacyclo-[23.11.1.1^4,7.0^5,36.0^26,35.0^28,33]octatriaconta-1,3,5(36)9,19,21,25,28,30,32,34-undecaen-30-yl]piperidin-4-yl)acetic acid] |  |  |  |  |  |  | 7.0 |  |  |  |  | > 10 µM | 1.1 fold | 1.9 fold | 0.187 µM (≈ 0.212 µg/mL) | 0.013 µM | 107% | 102% |  | 
CO[C@H]1/C=C/O[C@@]2(C)Oc3c(C)c(O)c4c(=O)c(c5oc6cc(N7CCN(C(=O)c8ccc(-c9ccc(C(N)=O)cc9)cc8)CC7)cc(OCc7ccc(CN8CCOCC8)cc7)c6nc-5c4c3C2=O)NC(=O)/C(C)=C\C=C\[C@H](C)[C@H](O)[C@@H](C)[C@@H](O)[C@@H](C)[C@H](OC(C)=O)[C@@H]1C [Compound 17t, (7S,9E,11S,12R,13S,14R,15R,16R,17S,18S,19E,21Z)-30-(4-{[4-(4-carbamoylphenyl)-phenyl]carbonyl}piperazin-1-yl)-2,15,17-trihydroxy-11-methoxy-3,7,12,14,16,18,22-heptamethyl-32-{[4-(morpholin-4-ylmethyl)phenyl]methoxy}-6,23,37-trioxo-8,27,38-trioxa-24,34-diazahexacyclo[23.11.1.1^4,7.0^5,36.0^26,35.0^28,33]octatriaconta-1,3,5(36)9,19,21,25,28,30,32,34-undecaen-13-yl acetate] |  |  |  |  |  |  | 0.6 |  | 100% |  |  | 55 µM |  |  | 0.032 µM |  |  |  | 1.3 fold | 2.1 fold
CO[C@H]1/C=C/O[C@@]2(C)Oc3c(C)c(O)c4c(=O)c(c5oc6cc(N7CCC(CC(=O)O)CC7)cc(N7CCC(CC(=O)O)CC7)c6nc-5c4c3C2=O)NC(=O)/C(C)=C\C=C\[C@H](C)[C@H](O)[C@@H](C)[C@@H](O)[C@@H](C)[C@H](OC(C)=O)[C@@H]1C [Compound 17v, 2-{1-[(7S,9E,11S,12R,13S,14R,15R,16R,17S,18S,19E,21Z)-13-(acetyloxy)-32-[4-(carboxymethyl)piperidin-1-yl]-2,15,17-trihydroxy-11-methoxy-3,7,12,14,16,18,22-heptamethyl-6,23,37-trioxo-8,27,38-trioxa-24,34-diazahexacyclo-[23.11.1.1^4,7.0^5,36.0^26,35.0^28,33]octatriaconta-1,3,5(36)9,19,21,25,28,30,32,34-undecaen-30-yl]piperidin-4-yl)acetic acid] |  |  |  |  |  |  |  |  |  |  |  | > 10 µM | 1.2 fold | 1.6 fold |  | 0.027 µM | 110% | 100% |  | 
CO[C@H]1/C=C/O[C@@]2(C)Oc3c(C)c(O)c4c(=O)c(c5oc6cc(C)cc(N7CCN(C)CC7)c6nc-5c4c3C2=O)NC(=O)/C(C)=C\C=C\[C@H](C)[C@H](O)[C@@H](C)[C@@H](O)[C@@H](C)[C@H](OC(C)=O)[C@@H]1C [Compound 30a, (7S,9E,11S,12R,13S,14R,15R,16R,17S,18S,19E,21Z)-2,15,17-Trihydroxy-11-methoxy-3,7,12,14,16,18,22,30-octamethyl-32-(4-methylpiperazin-1-yl)-6,23,37-trioxo-8,27,38-trioxa-24,34-diazahexacyclo[23.11.1.1^4,7.0^5,36.0^26,35.0^28,33]octatriaconta-1(36)2,4,9,19,21,25,28,30,32,34-undecaen-13-yl acetate] |  |  |  |  |  |  | <0.6 |  |  |  |  | > 8 µM | 4.6 fold | 20.4 fold | <0.016 µM |  | 92% | 47% |  | 
